Legend:
[1] = target: T1, 5-HT1A receptor (Rattus norvegicus, UniProt P19327); assay: 5-HT1A receptor binding activity in rat hippocampal membrane homogenate; details: method of Alexander and Wood
T1 construct: rat hippocampal membrane homogenate; from tissue; host or cells: rat hippocampal membrane homogenate
T1 sequence (P19327 1-422): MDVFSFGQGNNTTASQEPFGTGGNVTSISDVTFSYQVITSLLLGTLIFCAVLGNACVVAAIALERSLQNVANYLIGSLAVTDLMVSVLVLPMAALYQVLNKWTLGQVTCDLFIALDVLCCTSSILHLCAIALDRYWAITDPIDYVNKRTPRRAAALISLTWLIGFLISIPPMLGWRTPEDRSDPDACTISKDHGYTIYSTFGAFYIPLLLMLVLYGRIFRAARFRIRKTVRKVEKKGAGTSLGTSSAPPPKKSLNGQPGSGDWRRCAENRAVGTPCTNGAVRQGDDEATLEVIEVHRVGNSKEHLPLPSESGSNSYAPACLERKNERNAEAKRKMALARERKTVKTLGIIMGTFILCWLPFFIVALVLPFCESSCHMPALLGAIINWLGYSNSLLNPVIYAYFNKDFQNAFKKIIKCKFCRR
Protocol: The compounds of the invention are tested for 5-HT1A receptor binding activity in rat hippocampal membrane homogenate by the method of B. S. Alexander and M. D. Wood, J Pharm Pharmacol. 1988, 40, 888-891.

[2] = target: T2, 5-HT1A receptor (Cavia porcellus, UniProt A0A286Y074); assay: 5-HT1A receptor antagonism: antagonism of 5-carboxamidotryptamine in the guinea-pig ileum in vitro
T2 construct: guinea-pig ileum in vitro; from tissue; host or cells: guinea-pig ileum
T2 sequence (A0A286Y074 1-421): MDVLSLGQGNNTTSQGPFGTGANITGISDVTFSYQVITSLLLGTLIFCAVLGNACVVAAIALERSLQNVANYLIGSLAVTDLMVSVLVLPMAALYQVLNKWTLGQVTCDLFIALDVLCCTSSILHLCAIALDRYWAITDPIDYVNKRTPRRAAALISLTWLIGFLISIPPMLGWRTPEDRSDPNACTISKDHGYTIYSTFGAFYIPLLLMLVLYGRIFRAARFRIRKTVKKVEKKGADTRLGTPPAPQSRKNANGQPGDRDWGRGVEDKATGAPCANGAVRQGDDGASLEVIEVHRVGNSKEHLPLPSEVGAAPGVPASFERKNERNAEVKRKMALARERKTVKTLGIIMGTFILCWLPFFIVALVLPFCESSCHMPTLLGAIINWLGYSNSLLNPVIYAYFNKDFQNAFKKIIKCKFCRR
Protocol: The compounds are tested for 5-HT1A receptor antagonism activity in a test involving the antagonism of 5-carboxamidotryptamine in the guinea-pig ileum in vitro (based upon the procedure of Fozard et al, Br J Pharmac, 1985, 86, 601 P).

[3] = system: α1 site; assay: affinity for the α1 site; assay type: binding; details: procedure of A. L. Marrow et al

IC50 [1]: 3.5 nM
pA2 [2]: 7.9
IC50 [3]: 858 nM
Structure (SMILES): COc1ccccc1C1CCN([C@H](C)CN(C(=O)C2CCCCC2)c2ccccn2)CC1 [Example 1, (R)-N-(2-(1-(4-(2-Methoxyphenyl)piperidinyl))propyl)-N-(2-pyridyl)cyclohexanecarboxamide]

— patent publication US5763460A, “N-(piperidinyl-1-alkyl)-substituted cyclohexane carboxylic acid amides as 5-htia receptor antagonists” (John Wyeth & Brother Limited, priority 1993, dated 1998)
